The target of assay [1] is T1, baculovirus-expressed ALK (Homo sapiens, UniProt Q9UM73).
T1 construct: host or cells: baculovirus expression system
Kind of assay: ALK Kinase Assay (ELISA-type, time-resolved fluorescence). The format is biochemical. The settings on record: 1 μM ATP (Km level). Summed up: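 Plates coated with phospholipase C-γ substrate (10 μg/mL in TBS); reaction started with 30 ng/ml ALK and run 15 min at 37° C. Phosphorylated substrate detected with Eu-N1-labeled PT66 antibody. IC50 from sigmoidal variable-slope fit of percent inhibition vs log concentration.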

For assay [2], the target named is T2, c-Met (cytoplasmic domain) (Homo sapiens, UniProt P08581).
T2 construct: 10 ng/mL c-Met (cytoplasmic domain, Invitrogen Corporation #PV3143); purchased Invitrogen Corporation PV3143
Description: c-Met Kinase Assay (same methods as for ALK, with modifications). The settings on record: 1 μM ATP (Km level). The format is biochemical. Summed up: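 Europium-labeled PT66 antibody (Eu-N1) detects substrate phosphorylation on wells coated with phospholipase C-γ at 10 μg/mL. The kinase, the cytoplasmic domain of c-Met at 10 ng/mL, starts the reaction, which proceeds 15 minutes at 37° C.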

Setting [3] is: read-out: ALK Activity (ALK Kinase Inhibition, IC50).
The mark [4] stands for this setting: read-out: cMet Activity (c-Met Kinase Inhibition, IC50).
Where [5] appears, read: ALK kinase inhibition, read-out: ALK Activity.
The mark [6] stands for this setting: c-Met kinase inhibition, read-out: cMet Activity.
[7] abbreviates: 30 ng/ml ALK, 37° C., 15 minutes, read-out: ALK Activity (ALK kinase inhibition, IC50 class).
Where [8] appears, read: 10 ng/mL c-Met, read-out: cMet Activity (c-Met kinase inhibition, IC50 class).

Read-outs that look alike come from different tables or passages of the source.

T2 sequence (P08581 956-1390 limits assumed): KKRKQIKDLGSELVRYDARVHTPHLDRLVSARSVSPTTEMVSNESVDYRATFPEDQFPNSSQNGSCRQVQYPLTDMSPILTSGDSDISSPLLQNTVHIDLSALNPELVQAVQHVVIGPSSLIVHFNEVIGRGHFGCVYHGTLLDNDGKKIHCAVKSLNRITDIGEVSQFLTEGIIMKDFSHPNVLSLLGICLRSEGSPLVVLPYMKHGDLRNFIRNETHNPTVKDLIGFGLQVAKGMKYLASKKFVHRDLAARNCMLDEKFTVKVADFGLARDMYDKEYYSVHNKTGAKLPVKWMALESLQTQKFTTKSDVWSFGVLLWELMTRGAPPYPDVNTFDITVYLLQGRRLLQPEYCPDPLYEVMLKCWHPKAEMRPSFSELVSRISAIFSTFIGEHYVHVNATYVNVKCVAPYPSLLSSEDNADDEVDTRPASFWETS
T1 sequence (Q9UM73 19-1620): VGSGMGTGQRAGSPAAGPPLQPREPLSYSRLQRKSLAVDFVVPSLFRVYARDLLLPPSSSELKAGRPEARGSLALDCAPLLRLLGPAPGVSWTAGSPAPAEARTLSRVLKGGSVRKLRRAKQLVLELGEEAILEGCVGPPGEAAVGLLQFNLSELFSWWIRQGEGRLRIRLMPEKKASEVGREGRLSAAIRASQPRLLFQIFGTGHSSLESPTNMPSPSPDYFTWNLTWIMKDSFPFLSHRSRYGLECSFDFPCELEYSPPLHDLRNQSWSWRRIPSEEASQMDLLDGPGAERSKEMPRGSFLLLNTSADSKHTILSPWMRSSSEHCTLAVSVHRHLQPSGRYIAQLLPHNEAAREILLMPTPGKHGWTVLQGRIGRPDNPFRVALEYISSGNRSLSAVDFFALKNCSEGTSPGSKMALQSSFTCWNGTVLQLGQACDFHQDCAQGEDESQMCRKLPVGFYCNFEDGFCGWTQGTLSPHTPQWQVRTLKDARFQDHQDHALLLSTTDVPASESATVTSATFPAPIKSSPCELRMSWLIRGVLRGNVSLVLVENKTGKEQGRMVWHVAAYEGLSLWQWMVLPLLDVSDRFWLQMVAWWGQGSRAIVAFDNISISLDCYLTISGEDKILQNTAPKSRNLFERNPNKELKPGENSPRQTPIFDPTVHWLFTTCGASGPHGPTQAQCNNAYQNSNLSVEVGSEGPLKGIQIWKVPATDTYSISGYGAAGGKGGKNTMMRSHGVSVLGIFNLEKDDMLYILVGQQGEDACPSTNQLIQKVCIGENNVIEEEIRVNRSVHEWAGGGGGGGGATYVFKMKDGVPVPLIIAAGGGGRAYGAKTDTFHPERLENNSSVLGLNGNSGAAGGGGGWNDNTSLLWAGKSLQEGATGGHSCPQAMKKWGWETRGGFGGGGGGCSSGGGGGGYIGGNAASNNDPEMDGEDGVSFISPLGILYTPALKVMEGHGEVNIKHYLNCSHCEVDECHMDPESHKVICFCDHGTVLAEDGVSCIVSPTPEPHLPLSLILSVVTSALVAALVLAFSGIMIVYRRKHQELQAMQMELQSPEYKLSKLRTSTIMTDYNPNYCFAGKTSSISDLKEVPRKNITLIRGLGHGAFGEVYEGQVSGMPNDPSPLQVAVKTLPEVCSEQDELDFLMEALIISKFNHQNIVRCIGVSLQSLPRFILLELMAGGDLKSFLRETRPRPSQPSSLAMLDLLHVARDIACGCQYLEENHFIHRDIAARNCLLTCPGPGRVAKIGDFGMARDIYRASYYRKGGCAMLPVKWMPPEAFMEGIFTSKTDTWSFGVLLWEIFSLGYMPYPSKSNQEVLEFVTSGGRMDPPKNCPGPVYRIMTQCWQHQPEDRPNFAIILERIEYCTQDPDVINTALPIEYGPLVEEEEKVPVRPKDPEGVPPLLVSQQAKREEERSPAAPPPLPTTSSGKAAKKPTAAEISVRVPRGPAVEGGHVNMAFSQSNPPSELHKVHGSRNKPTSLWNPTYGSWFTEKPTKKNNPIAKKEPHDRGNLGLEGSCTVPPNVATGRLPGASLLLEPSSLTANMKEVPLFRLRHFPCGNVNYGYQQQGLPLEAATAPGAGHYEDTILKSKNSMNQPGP

Turning to `Cn1ccnc1-c1ccccc1Nc1nc(Nc2ccc3c(c2)CCC(NCC(F)F)CC3)ncc1Cl` (stereo not shown) [Example 661, 5-Chloro-N*2*-[7-(2,2-difluoro-ethylamino)-6,7,8,9-tetrahydro-5H-benzocyclohepten-2-yl]-N*4*-[2-(1-methyl-1H-imidazol-2-yl)-phenyl]-pyrimidine-2,4-diamine], the IC50 in assay [1] (setting [3]) and in assay [2] (setting [4]) was 100 to 1000 nM throughout.
On to `COCCN1C2CCC1c1cc(Nc3ncc(Cl)c(Nc4c(F)cccc4C(=O)OC(C)C)n3)ccc1C2` (stereo not shown) [Example 457, 2-{5-Chloro-2-[12-(2-methoxy-ethyl)-12-aza-tricyclo[7.2.1.0(2,7)]dodeca-2(7),3,5-trien-4-ylamino]-pyrimidin-4-ylamino}-3-fluoro-benzoic acid isopropyl ester], for which the IC50 in assay [1] (setting [5]) and in assay [2] (setting [6]) was 100 to 1000 nM each time.
Turning to `COc1cc2c(cc1Nc1ncc(Cl)c(N[C@@H]3CCCC[C@H]3NS(C)(=O)=O)n1)CCC(NCC(F)F)CC2` (single isomer, unassigned) [Example 1058], the IC50 in assay [1] (setting [7]) is less than 100 nM; in assay [2] (setting [8]), greater than 10000 nM.
`CS(=O)(=O)N[C@@H]1CCCC[C@H]1Nc1nc(Nc2ccc3c(c2)CNC(=O)NC3)ncc1Cl` [Example 226, N-{(1R,2R)-2-[5-Chloro-2-(3-oxo-2,3,4,5-tetrahydro-1H-benzo[e][1,3]diazepin-7-ylamino)-pyrimidin-4-ylamino]-cyclohexyl}-methanesulfonamide]: the IC50 was less than 100 nM in assay [1] (setting [5]) and 1000 to 10000 nM in assay [2] (setting [6]).
In the case of `COc1cc(N2CCOCC2)ccc1Nc1nc(Nc2ccc3c(c2)CCC(F)(F)CC3)ncc1Cl` [Example 182, 5-Chloro-N*2*-(7,7-difluoro-6,7,8,9-tetrahydro-5H-benzocyclohepten-2-yl)-N*4*-(2-methoxy-4-morpholin-4-yl-phenyl)-pyrimidine-2,4-diamine], the results for the IC50 in assay [1] (setting [5]) and in assay [2] (setting [6]) were 100 to 1000 nM and greater than 10000 nM, respectively.
On the same counts, the results for `CCNC(=O)c1ccccc1Nc1nc(Nc2cc3c(cc2OC)CCN(CC(=O)N(C)C)CC3)ncc1Cl` [Example 262, 2-[5-Chloro-2-(3-dimethylcarbamoylmethyl-8-methoxy-2,3,4,5-tetrahydro-1H-benzo[d]azepin-7-ylamino)-pyrimidin-4-ylamino]-N-ethyl-benzamide] are less than 100 nM and 1000 to 10000 nM.
With `O=C1CCCc2cc(Nc3ncc(Cl)c(Nc4ccccc4-c4nc(C(F)(F)F)c[nH]4)n3)ccc2N1` [Example 1012, 7-{5-Chloro-4-[2-(4-trifluoromethyl-1H-imidazol-2-yl)-phenylamino]-pyrimidin-2-ylamino}-1,3,4,5-tetrahydro-benzo[b]azepin-2-one], the IC50 in assay [1] (setting [3]) and in assay [2] (setting [4]) was 100 to 1000 nM in each case.
As for “N-((1R,2R)-2-{5-Chloro-2-[(1R,8S)-10-(2,2,2-trifluoro-acetyl)-10-aza-tricyclo[6.3.2.0*2,7*]trideca-2,4,6-trien-4-ylamino]-pyrimidin-4-ylamino}-cyclohexyl)-methanesulfonamide and N-((1R,2R)-2-{5-Chloro-2-[(1S,8R)-10-(2,2,2-trifluoro-acetyl)-10-aza-tricyclo[6.3.2.0*2,7*]trideca-2,4,6-trien-4-ylamino]-pyrimidin-4-ylamino}-cyclohexyl)-methanesulfonamide [Example 345]”, the IC50 in assay [1] (setting [5]) and in assay [2] (setting [6]) was less than 100 nM each time.
`COc1cc2c(cc1Nc1ncc(Cl)c(Nc3ccccc3S(=O)(=O)N(C)C)n1)CCN(CC(=O)N1CCC1)CC2` [Example 1201, 2-{2-[3-(2-Azetidin-1-yl-2-oxo-ethyl)-8-methoxy-2,3,4,5-tetrahydro-1H-benzo[d]azepin-7-ylamino]-5-chloro-pyrimidin-4-ylamino}-N,N-dimethyl-benzenesulfonamide]: the IC50 in assay [1] (setting [7]) is less than 100 nM; in assay [2] (setting [8]) it was greater than 10000 nM.
Regarding `CN1CCN(CCO)Cc2ccc(Nc3ncc(Cl)c(N[C@@H]4CCCC[C@H]4NS(C)(=O)=O)n3)cc21` [Example 478, N-((1R,2R)-2-{5-Chloro-2-[4-(2-hydroxy-ethyl)-1-methyl-2,3,4,5-tetrahydro-1H-benzo[e][1,4]diazepin-8-ylamino]-pyrimidin-4-ylamino}-cyclohexyl)-methanesulfonamide], the IC50 was less than 100 nM in assay [1] (setting [5]) and 1000 to 10000 nM in assay [2] (setting [6]).
As to `CNC(=O)c1ccccc1Nc1nc(Nc2cc3c(cc2OC)CC(=O)N(CCCN2CCOCC2)CC3)ncc1Cl` [Example 1126, 2-{5-Chloro-2-[8-methoxy-3-(3-morpholin-4-yl-propyl)-2-oxo-2,3,4,5-tetrahydro-1H-benzo[d]azepin-7-ylamino]-pyrimidin-4-ylamino}-N-methyl-benzamide], the results for the IC50 in assay [1] (setting [7]) and in assay [2] (setting [8]) were less than 100 nM and greater than 10000 nM, respectively.
Consider “(1S,2S,3R,4R)-3-[5-Chloro-2-[4-cyclopropylmethyl-7-methoxy-2,3,4,5-tetrahydro-1H-benzo[e][1,4]diazepin-8-ylamino)-pyrimidin-4-ylamino]-bicyclo(2.2.1)hept-5-ene-2-carboxylic acid amide [Example 747]”, for which the figures for the IC50 in assay [1] (setting [3]) and in assay [2] (setting [4]) were less than 100 nM and greater than 10000 nM, respectively.
As to `CCN1C(=O)OCCc2ccc(Nc3ncc(Cl)c(Nc4ccccc4C(=O)NC)n3)cc21` [Example 1881, 2-[5-Chloro-2-(5-ethyl-6-oxo-5,6,8,9-tetrahydro-7-oxa-5-aza-benzocyclohepten-3-ylamino)-pyrimidin-4-ylamino]-N-methyl-benzamide], the IC50 in assay [1] (setting [5]) and in assay [2] (setting [6]) was 100 to 1000 nM in each case.
As for `COc1ccc2c(c1Nc1ncc(Cl)c(Nc3ccccc3S(=O)(=O)N(C)C)n1)CCC(N1CCOCC1)CC2` (stereo not shown) [Example 1072, 2-[5-Chloro-2-(2-methoxy-7-morpholin-4-yl-6,7,8,9-tetrahydro-5H-benzocyclohepten-1-ylamino)-pyrimidin-4-ylamino]-N,N-dimethyl-benzenesulfonamide], the IC50 in assay [1] (setting [7]) is 100 to 1000 nM; in assay [2] (setting [8]), greater than 10000 nM.
As to `CNC(=O)c1ccccc1Nc1nc(Nc2ccc3c(c2)C2CCC(C3)N2S(C)(=O)=O)ncc1Cl` (racemic) [Example 102, (+/−)-2-[5-Chloro-2-(12-methanesulfonyl-12-aza-tricyclo[7.2.1.0*2,7*]dodeca-2(7),3,5-trien-4-ylamino)-pyrimidin-4-ylamino]-N-methyl-benzamide], the IC50 in assay [1] (setting [5]) and in assay [2] (setting [6]) was less than 100 nM each time.
As for `COc1cc2c(cc1Nc1ncc(Cl)c(Nc3ccc(N4CCOCC4)cc3OC)n1)CCN(C[C@H](O)C(F)(F)F)CC2` [Example 462, (S)-3-{7-[5-Chloro-4-(2-methoxy-4-morpholin-4-yl-phenylamino)-pyrimidin-2-ylamino]-8-methoxy-1,2,4,5-tetrahydro-benzo[d]azepin-3-yl}-1,1,1-trifluoro-propan-2-ol], the IC50 in assay [1] (setting [5]) is less than 100 nM; in assay [2] (setting [6]) it was greater than 10000 nM.
Regarding `CNC(=O)c1ccccc1Nc1nc(Nc2ccc3c(c2)C2CCC(C3)N2)ncc1Cl` (stereo not shown) [Example 79, 2-[2-(12-Aza-tricyclo[7.2.1.0*2,7*]dodeca-2(7),3,5-trien-4-ylamino)-5-chloro-pyrimidin-4-ylamino]-N-methyl-benzamide], the IC50 in assay [1] (setting [5]) and in assay [2] (setting [6]) was less than 100 nM each time.
Take `CCNC(=O)c1ccccc1Nc1nc(Nc2ccc3c(c2)C(C)(C)CCC(=O)N3)ncc1Cl` [Example 339]: the IC50 in assay [1] (setting [5]) and in assay [2] (setting [6]) was less than 100 nM each time.
As for `CCN1CCc2ccc(Nc3ncc(Cl)c(Nc4ccccc4NS(C)(=O)=O)n3)c(OC)c2CC1` [Example 233, N-{2-[5-Chloro-2-(3-ethyl-6-methoxy-2,3,4,5-tetrahydro-1H-benzo[d]azepin-7-ylamino)-pyrimidin-4-ylamino]-phenyl}-methanesulfonamide], the values for the IC50 in assay [1] (setting [5]) and in assay [2] (setting [6]) were less than 100 nM and greater than 10000 nM, respectively.
On to `COc1cc2c(cc1Nc1ncc(Cl)c(Nc3ccc(N4CCOCC4)cc3OC)n1)CCN(CC(N)=O)CC2` [Example 799, 2-{7-[5-Chloro-4-(2-methoxy-4-morpholin-4-yl-phenylamino)-pyrimidin-2-ylamino]-8-methoxy-1,2,4,5-tetrahydro-benzo[d]azepin-3-yl}-acetamide], for which the IC50 in assay [1] (setting [3]) is less than 100 nM; in assay [2] (setting [4]), greater than 10000 nM.
For `CC1(C)CCC(=O)Nc2ccc(Nc3ncc(Cl)c(Nc4ccccc4C(=O)NC4CC4)n3)cc21` [Example 341], the figures for the IC50 in assay [1] (setting [5]) and in assay [2] (setting [6]) were less than 100 nM and 100 to 1000 nM, respectively.
Regarding `COc1c(Nc2ncc(Cl)c(Nc3ccccc3S(=O)(=O)N(C)C)n2)ccc2c1CCC(N1CCCC(O)C1)CC2` (mixture of isomers) [Example 907, 2-{5-Chloro-2-[7-(3-hydroxy-piperidin-1-yl)-1-methoxy-6,7,8,9-tetrahydro-5H-benzocyclohepten-2-ylamino]-pyrimidin-4-ylamino}-N,N-dimethyl-benzenesulfonamide], the IC50 in assay [1] (setting [3]) was less than 100 nM; in assay [2] (setting [4]) it was greater than 10000 nM.
For the compound `CNC(=O)CN1CCc2cc(Nc3ncc(F)c(Nc4ccc(N5CCOCC5)cc4OC)n3)c(OC)cc2CC1` [Example 809, 2-{7-[5-Fluoro-4-(2-methoxy-4-morpholin-4-yl-phenylamino)-pyrimidin-2-ylamino]-8-methoxy-1,2,4,5-tetrahydro-benzo[d]azepin-3-yl}-N-methyl-acetamide], the IC50 in assay [1] (setting [3]) is less than 100 nM; in assay [2] (setting [4]) it was greater than 10000 nM.

Values taken from patent US8148391B2 (Cephalon, Inc., priority 2006, dated 2012).
